How the values were obtained:
Test in all cases: biochemical
Design in all cases: AlphaScreen histone demethylase activity assay
JARID1A (KDM5A) = JARID1A (KDM5A) (Homo sapiens, UniProt P29375)
JARID1C (KDM5C) = JARID1C (KDM5C) (Homo sapiens, UniProt P41229); conditions: read-out: KDM5C pIC50 (converted)
JMJD2A (KDM4A) = molecular target: T1, JMJD2A (KDM4A) (Homo sapiens, UniProt O75164); conditions: read-out: KDM4A pIC50 (converted)
T1 sequence (O75164 1-1064): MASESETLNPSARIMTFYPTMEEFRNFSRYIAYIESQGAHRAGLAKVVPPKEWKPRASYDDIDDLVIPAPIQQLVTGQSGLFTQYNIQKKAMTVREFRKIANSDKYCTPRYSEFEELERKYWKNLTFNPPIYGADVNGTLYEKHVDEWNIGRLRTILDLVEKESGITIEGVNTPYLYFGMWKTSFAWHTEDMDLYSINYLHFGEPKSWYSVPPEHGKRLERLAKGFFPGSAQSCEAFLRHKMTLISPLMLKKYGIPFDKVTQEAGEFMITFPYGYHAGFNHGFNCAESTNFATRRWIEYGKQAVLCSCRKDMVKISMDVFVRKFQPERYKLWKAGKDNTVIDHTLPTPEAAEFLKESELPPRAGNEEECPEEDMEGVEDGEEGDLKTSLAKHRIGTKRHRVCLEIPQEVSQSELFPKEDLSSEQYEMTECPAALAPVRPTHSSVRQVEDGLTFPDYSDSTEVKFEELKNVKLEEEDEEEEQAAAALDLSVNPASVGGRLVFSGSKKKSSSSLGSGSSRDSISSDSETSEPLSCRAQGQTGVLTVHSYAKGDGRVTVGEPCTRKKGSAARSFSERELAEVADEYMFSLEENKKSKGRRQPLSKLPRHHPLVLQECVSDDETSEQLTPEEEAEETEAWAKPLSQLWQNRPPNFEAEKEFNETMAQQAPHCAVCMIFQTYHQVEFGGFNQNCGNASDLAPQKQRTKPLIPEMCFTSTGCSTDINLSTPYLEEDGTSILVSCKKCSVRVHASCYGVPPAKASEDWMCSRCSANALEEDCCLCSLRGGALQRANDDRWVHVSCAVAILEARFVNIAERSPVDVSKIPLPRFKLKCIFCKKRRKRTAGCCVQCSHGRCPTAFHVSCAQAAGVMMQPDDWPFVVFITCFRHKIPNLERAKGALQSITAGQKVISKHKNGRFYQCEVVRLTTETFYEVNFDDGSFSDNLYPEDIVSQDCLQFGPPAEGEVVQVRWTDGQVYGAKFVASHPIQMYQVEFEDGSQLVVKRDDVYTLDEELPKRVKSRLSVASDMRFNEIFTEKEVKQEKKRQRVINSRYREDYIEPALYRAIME

JMJD2C (KDM4C) = molecular target: T2, JMJD2C (KDM4C) (Homo sapiens, UniProt Q9H3R0)
T2 sequence (Q9H3R0 1-1056): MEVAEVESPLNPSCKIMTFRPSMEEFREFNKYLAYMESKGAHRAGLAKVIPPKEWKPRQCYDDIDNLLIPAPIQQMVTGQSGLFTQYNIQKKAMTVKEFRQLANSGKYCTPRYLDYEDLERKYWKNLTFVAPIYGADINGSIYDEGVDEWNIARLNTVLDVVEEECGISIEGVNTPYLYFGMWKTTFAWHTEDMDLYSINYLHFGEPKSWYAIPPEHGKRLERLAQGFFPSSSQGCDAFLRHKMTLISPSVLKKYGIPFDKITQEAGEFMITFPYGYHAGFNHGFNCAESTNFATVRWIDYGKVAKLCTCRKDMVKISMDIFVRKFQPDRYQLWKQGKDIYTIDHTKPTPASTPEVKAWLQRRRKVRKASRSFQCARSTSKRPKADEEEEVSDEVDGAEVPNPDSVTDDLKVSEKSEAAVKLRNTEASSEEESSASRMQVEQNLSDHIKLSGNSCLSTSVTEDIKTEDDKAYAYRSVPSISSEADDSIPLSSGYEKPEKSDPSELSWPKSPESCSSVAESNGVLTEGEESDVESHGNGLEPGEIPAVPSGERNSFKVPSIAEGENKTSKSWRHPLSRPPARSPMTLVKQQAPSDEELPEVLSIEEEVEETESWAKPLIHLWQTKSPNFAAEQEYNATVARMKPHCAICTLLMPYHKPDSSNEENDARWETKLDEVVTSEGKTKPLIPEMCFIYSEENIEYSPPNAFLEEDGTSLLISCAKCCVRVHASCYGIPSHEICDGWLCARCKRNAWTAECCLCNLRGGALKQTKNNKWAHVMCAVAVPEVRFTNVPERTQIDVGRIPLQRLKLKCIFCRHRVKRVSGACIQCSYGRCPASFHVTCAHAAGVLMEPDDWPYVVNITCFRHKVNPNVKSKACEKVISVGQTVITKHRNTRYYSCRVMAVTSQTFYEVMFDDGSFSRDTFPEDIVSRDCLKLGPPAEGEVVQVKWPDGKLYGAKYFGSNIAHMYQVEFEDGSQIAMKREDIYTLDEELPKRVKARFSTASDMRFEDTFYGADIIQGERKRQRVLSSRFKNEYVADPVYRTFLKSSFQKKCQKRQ

JMJD3A (KDM6B) = JMJD3A (KDM6B) (Homo sapiens, UniProt O15054); conditions: read-out: KDM6B pIC50 (converted)
JMJD3A (KDM6B), sequence (O15054 whole entry): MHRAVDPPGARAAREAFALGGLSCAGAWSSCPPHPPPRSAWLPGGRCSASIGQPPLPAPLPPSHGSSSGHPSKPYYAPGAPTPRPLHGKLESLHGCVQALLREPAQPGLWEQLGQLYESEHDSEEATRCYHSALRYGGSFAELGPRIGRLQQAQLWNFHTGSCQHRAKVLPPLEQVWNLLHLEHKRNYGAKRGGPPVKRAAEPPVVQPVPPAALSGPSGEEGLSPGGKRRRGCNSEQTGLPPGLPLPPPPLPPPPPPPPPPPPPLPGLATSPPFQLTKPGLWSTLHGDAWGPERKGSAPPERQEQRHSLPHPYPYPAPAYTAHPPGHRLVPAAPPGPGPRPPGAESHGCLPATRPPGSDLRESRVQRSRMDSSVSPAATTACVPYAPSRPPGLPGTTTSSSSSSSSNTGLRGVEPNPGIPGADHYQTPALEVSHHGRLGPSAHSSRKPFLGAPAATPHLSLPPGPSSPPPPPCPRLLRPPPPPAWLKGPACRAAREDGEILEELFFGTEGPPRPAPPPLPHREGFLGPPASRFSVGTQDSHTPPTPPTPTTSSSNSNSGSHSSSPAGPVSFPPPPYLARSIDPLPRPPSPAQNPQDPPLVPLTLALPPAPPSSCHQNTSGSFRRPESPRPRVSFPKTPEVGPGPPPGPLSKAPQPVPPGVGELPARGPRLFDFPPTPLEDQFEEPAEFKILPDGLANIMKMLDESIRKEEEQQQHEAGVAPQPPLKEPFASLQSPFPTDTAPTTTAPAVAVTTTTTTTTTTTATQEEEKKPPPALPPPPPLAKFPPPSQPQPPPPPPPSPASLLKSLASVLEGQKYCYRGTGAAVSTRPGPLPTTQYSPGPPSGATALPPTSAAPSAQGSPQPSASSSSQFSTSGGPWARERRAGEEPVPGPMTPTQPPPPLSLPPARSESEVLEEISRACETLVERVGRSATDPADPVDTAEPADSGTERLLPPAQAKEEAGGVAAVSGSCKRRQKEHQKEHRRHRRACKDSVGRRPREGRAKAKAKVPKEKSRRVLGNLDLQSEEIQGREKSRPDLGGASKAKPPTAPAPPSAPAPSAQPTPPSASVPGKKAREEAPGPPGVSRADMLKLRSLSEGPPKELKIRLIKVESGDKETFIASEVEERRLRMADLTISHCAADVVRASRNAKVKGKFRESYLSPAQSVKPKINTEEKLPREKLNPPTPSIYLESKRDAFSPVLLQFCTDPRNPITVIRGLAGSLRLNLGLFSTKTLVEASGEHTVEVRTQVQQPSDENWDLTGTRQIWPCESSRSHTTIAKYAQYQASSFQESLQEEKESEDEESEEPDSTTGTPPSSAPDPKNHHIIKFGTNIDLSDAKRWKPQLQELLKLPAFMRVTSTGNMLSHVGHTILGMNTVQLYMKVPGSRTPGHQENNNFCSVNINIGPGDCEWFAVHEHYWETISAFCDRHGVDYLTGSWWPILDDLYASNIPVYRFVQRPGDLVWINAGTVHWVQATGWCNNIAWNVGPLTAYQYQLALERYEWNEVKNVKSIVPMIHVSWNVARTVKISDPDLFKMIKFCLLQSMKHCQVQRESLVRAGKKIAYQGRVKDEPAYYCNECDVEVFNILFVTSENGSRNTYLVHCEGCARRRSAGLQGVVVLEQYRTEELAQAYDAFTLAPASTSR

PHF8 (KDM7B) = PHF8 (KDM7B) (Homo sapiens, UniProt Q9UPP1); conditions: read-out: KDM7B pIC50 (converted)
PHF8 (KDM7B), sequence (Q9UPP1 whole entry): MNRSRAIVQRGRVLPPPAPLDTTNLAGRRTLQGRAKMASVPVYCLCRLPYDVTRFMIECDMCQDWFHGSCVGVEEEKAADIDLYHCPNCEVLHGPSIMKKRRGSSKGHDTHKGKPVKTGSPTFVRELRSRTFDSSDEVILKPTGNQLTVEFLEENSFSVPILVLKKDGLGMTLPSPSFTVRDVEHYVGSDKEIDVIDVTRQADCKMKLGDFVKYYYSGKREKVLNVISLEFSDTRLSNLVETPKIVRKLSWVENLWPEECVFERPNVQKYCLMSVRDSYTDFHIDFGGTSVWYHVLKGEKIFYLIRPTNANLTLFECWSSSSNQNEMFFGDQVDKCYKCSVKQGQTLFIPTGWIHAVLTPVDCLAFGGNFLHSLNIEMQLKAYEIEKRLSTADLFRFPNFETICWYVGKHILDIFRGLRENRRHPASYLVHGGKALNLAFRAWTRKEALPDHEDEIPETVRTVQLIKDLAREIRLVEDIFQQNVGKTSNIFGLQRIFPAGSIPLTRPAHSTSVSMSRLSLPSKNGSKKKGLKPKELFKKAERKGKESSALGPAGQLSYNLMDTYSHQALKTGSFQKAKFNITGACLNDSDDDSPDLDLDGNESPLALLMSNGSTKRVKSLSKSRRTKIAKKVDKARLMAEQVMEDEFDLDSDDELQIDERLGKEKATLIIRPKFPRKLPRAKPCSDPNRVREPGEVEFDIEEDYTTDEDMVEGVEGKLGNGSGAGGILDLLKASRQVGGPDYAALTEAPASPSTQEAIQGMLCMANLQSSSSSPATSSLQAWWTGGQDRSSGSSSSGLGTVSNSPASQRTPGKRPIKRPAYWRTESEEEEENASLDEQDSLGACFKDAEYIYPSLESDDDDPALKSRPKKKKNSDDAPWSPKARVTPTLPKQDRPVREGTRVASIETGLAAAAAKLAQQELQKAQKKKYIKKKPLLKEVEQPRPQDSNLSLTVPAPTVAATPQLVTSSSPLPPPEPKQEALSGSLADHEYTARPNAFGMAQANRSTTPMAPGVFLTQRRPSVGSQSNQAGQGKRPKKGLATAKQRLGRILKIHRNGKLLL

JARID1A (KDM5A), sequence (P29375 whole entry): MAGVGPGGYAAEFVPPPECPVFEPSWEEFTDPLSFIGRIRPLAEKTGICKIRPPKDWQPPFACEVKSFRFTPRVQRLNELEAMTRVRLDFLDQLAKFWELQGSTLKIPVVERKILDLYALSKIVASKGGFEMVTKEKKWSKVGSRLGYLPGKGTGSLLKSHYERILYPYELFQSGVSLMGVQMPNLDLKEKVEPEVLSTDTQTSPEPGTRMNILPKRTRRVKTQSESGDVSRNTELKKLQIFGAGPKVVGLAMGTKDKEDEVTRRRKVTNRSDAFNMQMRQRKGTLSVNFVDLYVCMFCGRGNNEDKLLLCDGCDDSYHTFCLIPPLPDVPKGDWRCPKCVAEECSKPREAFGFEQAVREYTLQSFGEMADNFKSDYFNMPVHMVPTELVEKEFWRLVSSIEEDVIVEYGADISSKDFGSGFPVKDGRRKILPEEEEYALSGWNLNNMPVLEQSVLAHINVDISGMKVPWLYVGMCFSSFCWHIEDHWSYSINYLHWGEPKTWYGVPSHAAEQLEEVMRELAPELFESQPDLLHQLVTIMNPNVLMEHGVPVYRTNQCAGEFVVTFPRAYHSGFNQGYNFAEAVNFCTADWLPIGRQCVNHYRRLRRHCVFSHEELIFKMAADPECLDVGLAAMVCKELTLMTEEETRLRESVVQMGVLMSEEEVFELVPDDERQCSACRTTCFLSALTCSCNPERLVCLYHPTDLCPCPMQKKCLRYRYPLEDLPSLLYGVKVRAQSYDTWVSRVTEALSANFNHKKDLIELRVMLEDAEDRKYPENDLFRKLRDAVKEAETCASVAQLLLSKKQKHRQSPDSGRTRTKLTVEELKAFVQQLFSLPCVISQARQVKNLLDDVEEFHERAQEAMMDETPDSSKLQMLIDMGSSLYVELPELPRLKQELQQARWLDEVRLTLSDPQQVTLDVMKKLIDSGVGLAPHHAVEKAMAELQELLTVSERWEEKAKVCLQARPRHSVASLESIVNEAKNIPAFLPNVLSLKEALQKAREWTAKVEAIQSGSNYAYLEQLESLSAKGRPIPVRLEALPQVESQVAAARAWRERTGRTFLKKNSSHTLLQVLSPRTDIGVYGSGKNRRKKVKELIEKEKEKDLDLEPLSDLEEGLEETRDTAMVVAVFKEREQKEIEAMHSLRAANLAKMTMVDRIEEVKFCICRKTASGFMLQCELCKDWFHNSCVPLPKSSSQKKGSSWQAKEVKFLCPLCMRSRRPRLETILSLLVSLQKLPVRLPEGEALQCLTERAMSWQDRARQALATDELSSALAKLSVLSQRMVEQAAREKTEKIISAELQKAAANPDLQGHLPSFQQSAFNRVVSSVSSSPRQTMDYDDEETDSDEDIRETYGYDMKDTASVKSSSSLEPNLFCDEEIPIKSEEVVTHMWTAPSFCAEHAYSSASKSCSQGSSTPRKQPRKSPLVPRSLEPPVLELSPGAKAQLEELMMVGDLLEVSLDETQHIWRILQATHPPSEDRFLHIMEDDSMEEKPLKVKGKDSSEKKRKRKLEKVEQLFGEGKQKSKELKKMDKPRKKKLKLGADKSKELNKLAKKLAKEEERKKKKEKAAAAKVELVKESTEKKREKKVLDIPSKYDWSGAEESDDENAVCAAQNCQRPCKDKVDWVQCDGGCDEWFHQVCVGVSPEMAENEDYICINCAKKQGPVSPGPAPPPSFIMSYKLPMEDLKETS

inhibition at 50 µM (JARID1A (KDM5A)): -20.3%
IC50 (JARID1A (KDM5A); read-out: KDM5A pIC50 (converted)): > 50.1 µM
IC50 (JARID1C (KDM5C)): 15.7 µM
IC50 (JMJD2A (KDM4A)): > 20 µM
inhibition at 10 µM (JMJD2C (KDM4C); read-out: KDM4C % Inhib. (10 uM)): 30.5%
IC50 (JMJD2C (KDM4C); read-out: KDM4C pIC50 (converted)): > 100 µM
IC50 (JMJD3A (KDM6B)): 19.8 µM
IC50 (PHF8 (KDM7B)): 22.8 µM
SMILES: CC(=O)N1c2ccccc2[C@@](C#N)(c2ccccc2)[C@@H]1c1cncc(CCCCCCCN2CCCC2)c1 [(S,S)-6]
